Patent publication US20110094885A1, “Flexible Drug Delivery Chip, its Fabrication Method and Uses Thereof” (NATIONAL CHIAO TUNG UNIVERSITY, priority 2009, published 2011)

System: spontaneous SWDs
Experiment: Spontaneous spike-wave discharges (SWDs) in Long-Evans rats
Type: in vivo
Settings: 0.5 ml, 28 mg/kg, i.p.; vs saline; n=8
Protocol: All rats were kept in a sound-attenuated room under a 12:12 hour light-dark cycle (07:00-19:00 lights on) with food and water provided ad libitum. The experimental procedures were reviewed and approved by the Institutional Animal Care and Use Committee. Briefly, the recording electrodes were implanted under pentobarbital anesthesia (60 mg/kg, i.p.). Subsequently, the rat was placed in a standard stereotaxic apparatus. In total, six stainless steel screws were driven bilaterally into the skull overlying the frontal (A +2.0, L 2.0 with reference to the bregma) and occipital (A −6.0, L 2.0) regions of the cortex to record cortical field potentials. A ground electrode was implanted 2 mm caudal to lambda. Dental cement was applied to fasten the connection socket to the surface of the skull. Following suturing to complete the surgery, animals were given an antibiotic (chlortetracycline) and housed individually in cages for recovery. […] In this preliminary animal test, we compared effect among saline, ethosuximide (ESM), ESM-loaded nanoparticles (ESM-Fe3O4@SiO2) and ESM-containing chip (ESM-Chip) in spontaneous SWDs of Long-Evans rats. […] In this experiment, we recorded 1-hour spontaneous brain activity before the treatment (baseline) and another 1-hour spontaneous brain activity 30 minutes after the treatment. […]

## CCC1(C)CC(=O)NC1=O (centres unmarked) [ESM, ethosuximide]
  SWD number: significantly decreased
  total SWD duration: significantly decreased
